Test results taken from PMC4490105 (Cell reports, 2015).

Tests used:
[1] = test system: influenza A/PR/8/34 (PR8); details: ref Shirey et al., 2013; cited from earlier work
TLR7 = assay: R848; assay type: cell-based, mouse; details: murine macrophages; R848 (2.85 μM); Figure 2E, F
[2] = biological target: NF-kB activator 1 CC loop decoy peptide SEFIR CC loop (Homo sapiens) (UniProt O43734); assay: SPR; details: cited from earlier work

Chain of IL-17RA (Q96F46 33-866): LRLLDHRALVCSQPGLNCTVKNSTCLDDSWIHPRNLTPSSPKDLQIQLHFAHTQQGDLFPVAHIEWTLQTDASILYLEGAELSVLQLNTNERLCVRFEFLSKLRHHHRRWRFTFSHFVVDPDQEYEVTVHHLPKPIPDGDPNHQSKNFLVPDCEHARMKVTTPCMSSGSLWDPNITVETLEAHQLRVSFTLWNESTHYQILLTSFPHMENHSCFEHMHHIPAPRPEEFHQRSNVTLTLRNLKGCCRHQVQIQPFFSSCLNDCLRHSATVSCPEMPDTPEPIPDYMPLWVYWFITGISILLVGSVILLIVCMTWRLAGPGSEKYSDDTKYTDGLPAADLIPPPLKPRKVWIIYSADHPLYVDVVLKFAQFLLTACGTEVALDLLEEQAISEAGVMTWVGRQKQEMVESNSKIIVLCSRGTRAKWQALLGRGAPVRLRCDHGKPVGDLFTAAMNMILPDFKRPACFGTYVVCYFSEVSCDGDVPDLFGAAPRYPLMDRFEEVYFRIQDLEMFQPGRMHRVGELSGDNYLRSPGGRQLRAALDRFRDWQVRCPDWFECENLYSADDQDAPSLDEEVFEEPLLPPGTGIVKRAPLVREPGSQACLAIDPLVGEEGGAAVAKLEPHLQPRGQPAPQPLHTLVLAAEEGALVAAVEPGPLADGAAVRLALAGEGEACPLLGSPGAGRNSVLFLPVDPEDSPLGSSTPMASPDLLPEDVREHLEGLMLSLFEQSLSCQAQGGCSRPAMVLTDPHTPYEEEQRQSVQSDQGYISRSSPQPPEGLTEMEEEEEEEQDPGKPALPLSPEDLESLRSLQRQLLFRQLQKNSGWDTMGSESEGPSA

For CCCCCC/C=C\CCCCCCCCCC(=O)N[C@H]1[C@H](OC[C@H]2O[C@H](OP(=O)(O)O)[C@H](NC(=O)CC(=O)CCCCCCCCCCC)[C@@H](OCCCCCCCCCC)[C@@H]2O)O[C@H](COC)[C@@H](OP(=O)(O)O)[C@@H]1OCC[C@@H](CCCCCCC)OC [Eritoran], the “Protection from PR8 infection, TLR2−/− mice” value [1] is given as “could not be protected” and the “Protection from PR8 infection, mice” value [1] is given as “protected mice from PR8 infection”.
For CCOCc1nc2c(N)nc3ccccc3c2n1CC(C)(C)O [R848], the “Induction of TNF-α and IL-6” value (TLR7) was “induced robust production”.
For IL-17RA (from UniProt Q96F46), the Kd [2] is listed as 117 µM.
